From US7763585B2, “Methods for inhibiting tumor cell proliferation” (priority 2003, dated 2010) come the findings set out here.

In one assay the target is T1, Stat3:Stat3 (Mus musculus, UniProt P42227).
T1 construct: endogenous in cells; host or cells: EGF-stimulated fibroblasts (nuclear extract)
Description: EMSA, disruption of Stat3:Stat3 DNA-binding activity in vitro (hSIE probe). The settings on record: for Level of DNA-binding activity of Stat3 (EMSA): EGF-stimulated fibroblast nuclear extracts, 30 min preincubation, FIG. 1A; for IC50: nuclear extracts pre-incubated 30 min at room temperature, read-out: IC50 for disruption of STAT DNA-binding activity in vitro, Stat3:Stat3. The class given is biochemical. The procedure: (§1) FIGS. 1A-D are photographs showing EMSA analyses of DNA-binding activities and effects of platinum complexes. Nuclear extracts containing activated Stat1, Stat3 and Stat5 are treated with the indicated concentrations of platinum complex ISSCPA-1, ISSCPA-3, ISSCPA-7, or PtCl4 for 30 min at room temperature prior to incubation with radiolabeled oligonucleotide probes. […] Positions of complexes of DNA with STAT, E2F1 or NFκB (p65, p50) in gel are labeled. Control lanes represent nuclear extracts that are not pre-incubated with platinum complexes.
(§2) Nuclear extracts were prepared from cell lines and used for EMSA as previously described (Turkson et al., 1998; Yu et al., 1995; Garcia et al., 1997). In some cases, cells were pre-treated with platinum complexes for the indicated times prior to harvesting. Where cells were stimulated with EGF (6 ng/ml), duration of treatment was 15 min. Nuclear extracts were pre-incubated with compounds for 30 min at room temperature prior to incubation with radiolabeled probe. The ^32P-radiolabeled oligonucleotide probes used are hSIE (high affinity sis-inducible element, m67 variant, 5′-[…]-3′) (SEQ ID NO:1) that binds both Stat1 and Stat3 (Garcia et al., 1997; Wagner et al., 1990), MGFe (mammary gland factor element from the bovine β-casein gene promoter, 5′-AGATTTCTAGGAATTCAA-3′) (SEQ ID NO:2) that binds Stat1 and Stat5 (Gouilleux et al., 1995; Seidel et al., 1995), the NF-κB binding oligo (5′-[…]-3′) (SEQ ID NO:3), and the oligonucleotide sequence from the DHFR promoter that binds E2F1.
(§3) Platinum compounds were evaluated for inhibitory activity against STAT DNA-binding in vitro.
(In EMSA bound probe runs differently from free probe, usually more slowly.)

The next assay deals with Stat5. The experiment in a line: EMSA, Stat5 DNA-binding activity in vitro (MGFe probe). In kind it is biochemical, mouse. The settings on record: FIG. 1B. As for the experimental part:
as §1, §2, §3

A further assay concerns NIH3T3v-Src. The experiment in a line: Cell proliferation of v-Src-transformed fibroblasts. The class given is cell-based, mouse. As to conditions: FIG. 6. As for the experimental part:
(§4) FIGS. 6A and 6B show the effects of platinum complexes on cell proliferation and viability. […] Values are the mean and S.D. of 3-4 independent determinations.
(§5) Proliferating cells were counted by phase-contrast microscopy for viable cells (using trypan blue exclusion. TUNEL staining was carried according to supplier's instructions to detect apoptotic cells. Cells (NIH3T3 or NIH3T3/v-Src) were first treated with or without compounds 24-48 h prior to staining.
(§6) The effects of platinum complexes on cell proliferation measured by [^3H]-thymidine incorporation were investigated.

Another assay concerns normal mouse fibroblasts. Description: Cell proliferation ([3H]-thymidine incorporation) of normal mouse fibroblasts. In kind it is cell-based. The settings on record: FIG. 6; reduction in growth rate but not growth inhibitory. The procedure:
as §4, §5, §6

T1 sequence (P42227 2-770 limits assumed): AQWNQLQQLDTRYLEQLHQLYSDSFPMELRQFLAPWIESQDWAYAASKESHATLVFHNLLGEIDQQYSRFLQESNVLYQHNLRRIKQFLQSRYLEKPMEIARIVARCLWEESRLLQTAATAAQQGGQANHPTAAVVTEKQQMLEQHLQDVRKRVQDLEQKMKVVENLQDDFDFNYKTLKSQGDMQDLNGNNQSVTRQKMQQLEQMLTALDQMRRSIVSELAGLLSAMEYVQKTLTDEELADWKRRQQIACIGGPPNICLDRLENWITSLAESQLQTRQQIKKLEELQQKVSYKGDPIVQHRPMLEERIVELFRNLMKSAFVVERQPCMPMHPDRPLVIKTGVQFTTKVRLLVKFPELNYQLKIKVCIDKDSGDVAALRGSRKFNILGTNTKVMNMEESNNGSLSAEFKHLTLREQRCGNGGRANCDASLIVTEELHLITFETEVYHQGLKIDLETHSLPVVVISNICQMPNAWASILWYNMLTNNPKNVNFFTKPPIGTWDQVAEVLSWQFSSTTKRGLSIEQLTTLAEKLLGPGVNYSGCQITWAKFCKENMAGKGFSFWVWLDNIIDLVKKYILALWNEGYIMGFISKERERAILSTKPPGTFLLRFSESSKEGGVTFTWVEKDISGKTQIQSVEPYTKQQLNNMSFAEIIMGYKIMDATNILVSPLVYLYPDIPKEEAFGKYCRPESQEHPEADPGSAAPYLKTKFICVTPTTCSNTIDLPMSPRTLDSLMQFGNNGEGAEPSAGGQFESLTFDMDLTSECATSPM

For the compound `[NH2][Pt]([NH2])([Cl])([Cl])([Cl])[N+](=O)[O-]` [ISS CPA-7], at Stat3:Stat3, the “Level of DNA-binding activity of Stat3 (EMSA)” value is “dose-dependent reduction” and the half-maximal inhibitory concentration (IC50) (in general, the midpoint of a concentration-inhibition curve) amounted to 1.5 µM. Moreover, the “Inhibitory effect on Stat5 DNA-binding activity (EMSA)” value in the assay with Stat5 was “much reduced inhibitory effect”. Moreover, the “Growth of Src-transformed mouse fibroblasts ([3H]-thymidine incorporation)” value with NIH3T3v-Src is on record as “strongly inhibited”. The “Growth of normal mouse fibroblasts ([3H]-thymidine incorporation)” value with normal mouse fibroblasts is listed as “marginal effect”.
Taken in the same sequence, the figures for `O=[N+]([O-])[Pt]1([Cl])([Cl])([Cl])[NH]CC[NH]1` [ISS CPA-1] were “dose-dependent reduction”, 5 µM, “much reduced inhibitory effect”, “strongly inhibited” and “marginal effect”.
